Assay results from publication PMC9412374, “Design, Synthesis, and Development of pyrazolo[1,5-a]pyrimidine Derivatives as a Novel Series of Selective PI3Kδ Inhibitors: Part I—Indole Derivatives” (Pharmaceuticals, 2022).
Where two headings read alike, the source gives them in different places.

Legend:
Format in all cases: biochemical
[1] = molecular target: T1, PI3Kβ (Homo sapiens, UniProt P42338); experiment: In vitro kinase inhibition assay for PI3K (ADP-Glo), PI3Kβ; details: for Fold Selectivity β/δ: ratio of IC50 PI3Kβ to IC50 PI3Kδ
T1 construct: purchased Merck Millipore
T1 sequence (P42338 whole entry): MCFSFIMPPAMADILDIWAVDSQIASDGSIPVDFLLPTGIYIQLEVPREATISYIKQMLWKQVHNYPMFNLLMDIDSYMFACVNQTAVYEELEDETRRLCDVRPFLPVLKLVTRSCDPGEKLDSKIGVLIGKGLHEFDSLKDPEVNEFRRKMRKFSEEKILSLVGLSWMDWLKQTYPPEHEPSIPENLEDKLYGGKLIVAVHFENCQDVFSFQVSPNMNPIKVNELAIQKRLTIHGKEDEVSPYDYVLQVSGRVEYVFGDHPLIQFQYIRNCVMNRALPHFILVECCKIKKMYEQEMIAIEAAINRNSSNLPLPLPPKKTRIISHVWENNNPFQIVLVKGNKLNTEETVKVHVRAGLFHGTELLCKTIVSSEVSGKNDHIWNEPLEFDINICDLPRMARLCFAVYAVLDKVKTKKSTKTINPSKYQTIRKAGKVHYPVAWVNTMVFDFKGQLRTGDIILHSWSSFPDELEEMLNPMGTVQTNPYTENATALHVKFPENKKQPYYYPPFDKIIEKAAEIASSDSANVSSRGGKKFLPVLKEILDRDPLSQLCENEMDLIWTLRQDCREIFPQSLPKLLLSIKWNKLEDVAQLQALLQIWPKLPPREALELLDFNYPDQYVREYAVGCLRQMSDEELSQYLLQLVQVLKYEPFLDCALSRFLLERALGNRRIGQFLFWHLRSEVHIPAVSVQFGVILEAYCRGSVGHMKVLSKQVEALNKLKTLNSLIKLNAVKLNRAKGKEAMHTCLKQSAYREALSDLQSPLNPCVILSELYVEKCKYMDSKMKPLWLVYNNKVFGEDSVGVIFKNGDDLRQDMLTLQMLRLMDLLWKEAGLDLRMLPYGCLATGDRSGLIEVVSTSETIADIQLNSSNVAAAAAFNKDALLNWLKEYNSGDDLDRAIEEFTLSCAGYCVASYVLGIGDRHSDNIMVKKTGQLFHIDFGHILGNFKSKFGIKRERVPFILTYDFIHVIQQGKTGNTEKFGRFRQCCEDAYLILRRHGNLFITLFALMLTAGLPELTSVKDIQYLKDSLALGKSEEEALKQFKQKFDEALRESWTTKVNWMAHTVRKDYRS
T1 sequence (P27986 whole entry, further chain): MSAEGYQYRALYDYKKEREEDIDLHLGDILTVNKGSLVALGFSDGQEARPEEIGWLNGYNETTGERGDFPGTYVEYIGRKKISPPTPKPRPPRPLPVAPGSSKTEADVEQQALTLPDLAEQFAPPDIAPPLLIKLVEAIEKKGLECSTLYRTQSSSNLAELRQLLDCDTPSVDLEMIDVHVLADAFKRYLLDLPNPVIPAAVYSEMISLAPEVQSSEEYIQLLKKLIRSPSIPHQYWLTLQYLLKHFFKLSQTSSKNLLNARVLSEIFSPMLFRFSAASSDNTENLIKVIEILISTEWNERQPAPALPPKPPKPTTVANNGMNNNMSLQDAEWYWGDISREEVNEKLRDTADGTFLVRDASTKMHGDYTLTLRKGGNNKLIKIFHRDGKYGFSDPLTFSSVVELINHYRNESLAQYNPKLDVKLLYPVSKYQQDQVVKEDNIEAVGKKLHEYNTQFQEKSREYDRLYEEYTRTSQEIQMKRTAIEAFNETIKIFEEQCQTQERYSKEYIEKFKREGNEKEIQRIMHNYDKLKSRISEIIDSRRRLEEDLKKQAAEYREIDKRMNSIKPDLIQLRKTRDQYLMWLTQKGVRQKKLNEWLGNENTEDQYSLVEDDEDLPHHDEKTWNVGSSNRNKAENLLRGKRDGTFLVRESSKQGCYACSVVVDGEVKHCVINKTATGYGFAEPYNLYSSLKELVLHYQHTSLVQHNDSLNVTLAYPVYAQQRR
Protocol: (§1) Tested compounds were dissolved in 100% DMSO, and obtained solutions were serially diluted in 1× reaction buffer. The recombinant kinase solution was diluted in a reaction mixture comprising 5× reaction buffer, respective compound solution (1 mM sodium diacetate 4,5-bisphosphate phosphatidylinositol (PIP2) solution in 40 mM Tris buffer), and water. In a 96-wells plate, 5 μL of compound solutions and 15 μL of the kinase solution in the reaction mixture were added per well. To initiate the interaction of chemical compounds to be tested with the enzyme, the plate was incubated for 10 min at a suitable temperature in a plate thermostat with orbital shaking at 600 rpm. Negative control wells contained all the above reagents except tested compound and kinase, and positive control wells contained all the above reagents except tested compounds. […] Subsequently, the plate was incubated for 1 h at 25 or 30 °C (depending on the PI3K isoform tested) in a plate thermostat with orbital shaking of the plate contents at 600 rpm. The reaction conditions are combined in the table below (Table 6).
(§2) Detection of ADP formed in the enzymatic reaction was then performed using ADP-Glo Kinase Assay™ (Promega, Madison, WI, USA). To the wells of a 96-well plate, 25 μL of ADP-Glo Reagent™ was added, and the plate was incubated for 40 min at 25 °C in a plate thermostat with orbital shaking at 600 rpm. Then 50 μL of Kinase Detection Reagent were added to each well, and the plate was incubated for 40 min at 25 °C in a plate thermostat with orbital shaking at 600 rpm. Once the incubation was complete, the luminescence intensity was measured using a Victor Light luminometer (Perkin Elmer, Inc., Waltham, MA, USA). IC50 values were determined based on luminescence intensity measured in wells containing tested compounds at different concentrations in relation to control wells. […] Each compound was tested at least in quadruplicates (4 wells) on two 96-well plates utilizing at least 4 wells for each control.

[2] = molecular target: T2, PI3Kγ (Homo sapiens, UniProt P48736); experiment: In vitro kinase inhibition assay for PI3K (ADP-Glo), PI3Kγ; details: for Fold Selectivity γ/δ: ratio of IC50 PI3Kγ to IC50 PI3Kδ
T2 construct: purchased Merck Millipore
T2 sequence (P48736 whole entry): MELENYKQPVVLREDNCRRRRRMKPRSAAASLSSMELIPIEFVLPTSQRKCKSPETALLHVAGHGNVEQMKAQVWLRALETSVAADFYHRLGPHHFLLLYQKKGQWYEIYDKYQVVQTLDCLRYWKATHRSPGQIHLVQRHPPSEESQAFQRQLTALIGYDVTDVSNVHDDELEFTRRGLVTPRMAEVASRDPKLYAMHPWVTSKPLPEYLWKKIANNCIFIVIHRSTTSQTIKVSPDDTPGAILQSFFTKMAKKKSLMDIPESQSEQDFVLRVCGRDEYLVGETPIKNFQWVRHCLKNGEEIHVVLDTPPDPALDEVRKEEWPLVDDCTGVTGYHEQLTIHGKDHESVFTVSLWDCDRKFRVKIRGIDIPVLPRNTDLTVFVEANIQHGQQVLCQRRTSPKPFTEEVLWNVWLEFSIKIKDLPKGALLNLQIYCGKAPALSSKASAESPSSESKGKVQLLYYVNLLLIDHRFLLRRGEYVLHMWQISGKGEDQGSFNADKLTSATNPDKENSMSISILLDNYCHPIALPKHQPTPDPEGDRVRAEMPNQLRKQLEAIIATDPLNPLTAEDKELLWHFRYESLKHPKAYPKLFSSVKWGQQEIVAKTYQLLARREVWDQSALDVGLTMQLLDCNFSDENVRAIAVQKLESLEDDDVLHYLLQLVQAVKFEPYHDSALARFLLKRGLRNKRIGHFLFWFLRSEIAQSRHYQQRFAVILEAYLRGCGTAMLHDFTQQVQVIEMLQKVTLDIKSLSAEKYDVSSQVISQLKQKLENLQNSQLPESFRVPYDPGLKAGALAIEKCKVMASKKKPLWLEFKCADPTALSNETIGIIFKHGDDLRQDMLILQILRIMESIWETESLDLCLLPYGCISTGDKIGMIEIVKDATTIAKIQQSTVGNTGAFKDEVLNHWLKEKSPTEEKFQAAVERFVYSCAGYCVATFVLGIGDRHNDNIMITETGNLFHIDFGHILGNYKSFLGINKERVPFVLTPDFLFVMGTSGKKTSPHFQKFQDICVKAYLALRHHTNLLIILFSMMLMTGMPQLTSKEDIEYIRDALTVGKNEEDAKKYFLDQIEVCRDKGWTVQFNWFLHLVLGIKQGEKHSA
Protocol: as §1, §2

[3] = molecular target: T3, PI3Kα (Homo sapiens, UniProt P42336); experiment: In vitro kinase inhibition assay for PI3K (ADP-Glo), PI3Kα; details: for IC50: IC50 PI3K α, recombinant kinase, ADP-Glo, mean of two independent experiments; for Fold Selectivity α/δ: ratio of IC50 PI3Kα to IC50 PI3Kδ
T3 construct: purchased Carna Biosciences
T3 sequence (P42336 whole entry): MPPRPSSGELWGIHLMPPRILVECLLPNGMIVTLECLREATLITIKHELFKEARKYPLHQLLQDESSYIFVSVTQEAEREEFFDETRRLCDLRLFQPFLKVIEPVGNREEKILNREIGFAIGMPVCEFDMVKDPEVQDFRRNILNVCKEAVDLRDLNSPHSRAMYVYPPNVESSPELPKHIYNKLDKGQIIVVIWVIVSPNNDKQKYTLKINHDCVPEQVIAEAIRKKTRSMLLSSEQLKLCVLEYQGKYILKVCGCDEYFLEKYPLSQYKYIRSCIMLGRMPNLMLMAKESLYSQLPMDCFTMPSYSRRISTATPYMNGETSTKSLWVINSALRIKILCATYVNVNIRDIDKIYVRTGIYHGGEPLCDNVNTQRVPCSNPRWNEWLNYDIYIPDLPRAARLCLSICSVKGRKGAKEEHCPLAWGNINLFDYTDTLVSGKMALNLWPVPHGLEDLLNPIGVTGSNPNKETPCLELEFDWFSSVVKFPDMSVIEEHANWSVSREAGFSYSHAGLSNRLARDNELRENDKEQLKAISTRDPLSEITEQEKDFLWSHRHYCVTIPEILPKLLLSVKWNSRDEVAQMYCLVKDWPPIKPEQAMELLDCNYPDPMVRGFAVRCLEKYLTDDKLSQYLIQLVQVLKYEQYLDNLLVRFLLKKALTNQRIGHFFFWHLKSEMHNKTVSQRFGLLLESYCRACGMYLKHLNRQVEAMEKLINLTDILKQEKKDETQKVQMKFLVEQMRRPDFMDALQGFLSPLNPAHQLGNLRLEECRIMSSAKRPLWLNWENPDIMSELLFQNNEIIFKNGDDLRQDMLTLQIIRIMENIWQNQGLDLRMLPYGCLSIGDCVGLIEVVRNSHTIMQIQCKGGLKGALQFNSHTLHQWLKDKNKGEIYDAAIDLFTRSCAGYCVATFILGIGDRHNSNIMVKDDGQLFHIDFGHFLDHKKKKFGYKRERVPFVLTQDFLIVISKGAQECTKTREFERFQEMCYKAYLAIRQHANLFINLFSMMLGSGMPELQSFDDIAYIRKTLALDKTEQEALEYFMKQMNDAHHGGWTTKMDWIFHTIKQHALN
T3 sequence (P27986 whole entry partner): as the sequence (P27986 whole entry, further chain) above
Protocol: Tested compounds were dissolved in 100% DMSO, and obtained solutions were serially diluted in 1× reaction buffer. The recombinant kinase solution was diluted in a reaction mixture comprising 5× reaction buffer, respective compound solution (1 mM sodium diacetate 4,5-bisphosphate phosphatidylinositol (PIP2) solution in 40 mM Tris buffer), and water. In a 96-wells plate, 5 μL of compound solutions and 15 μL of the kinase solution in the reaction mixture were added per well. To initiate the interaction of chemical compounds to be tested with the enzyme, the plate was incubated for 10 min at a suitable temperature in a plate thermostat with orbital shaking at 600 rpm. Negative control wells contained all the above reagents except tested compound and kinase, and positive control wells contained all the above reagents except tested compounds. The enzymatic reaction was initiated by adding 5 μL of 150 μM ATP solution. Subsequently, the plate was incubated for 1 h at 25 or 30 °C (depending on the PI3K isoform tested) in a plate thermostat with orbital shaking of the plate contents at 600 rpm. The reaction conditions are combined in the table below (Table 6).
Detection of ADP formed in the enzymatic reaction was then performed using ADP-Glo Kinase Assay™ (Promega, Madison, WI, USA). To the wells of a 96-well plate, 25 μL of ADP-Glo Reagent™ was added, and the plate was incubated for 40 min at 25 °C in a plate thermostat with orbital shaking at 600 rpm. Then 50 μL of Kinase Detection Reagent were added to each well, and the plate was incubated for 40 min at 25 °C in a plate thermostat with orbital shaking at 600 rpm. Once the incubation was complete, the luminescence intensity was measured using a Victor Light luminometer (Perkin Elmer, Inc., Waltham, MA, USA). IC50 values were determined based on luminescence intensity measured in wells containing tested compounds at different concentrations in relation to control wells. These values were calculated with Graph Pad 5.03 software by fitting the curve using non-linear regression. Each compound was tested at least in quadruplicates (4 wells) on two 96-well plates utilizing at least 4 wells for each control. Averaged results of inhibition activity respective to specific isoforms of PI3K kinases for tested compounds are presented as IC50 values in Table 1, Table 2, Table 3 and Table 4.

[4] = molecular target: T4, PI3Kδ (Homo sapiens, UniProt O00329); experiment: In vitro kinase inhibition assay for PI3K (ADP-Glo), PI3Kδ; details: recombinant kinase, mean of two independent experiments, read-out: IC50 PI3K δ
T4 construct: purchased Merck Millipore
T4 sequence (P27986 whole entry): as the sequence (P27986 whole entry, further chain) above
T4 sequence (O00329 whole entry): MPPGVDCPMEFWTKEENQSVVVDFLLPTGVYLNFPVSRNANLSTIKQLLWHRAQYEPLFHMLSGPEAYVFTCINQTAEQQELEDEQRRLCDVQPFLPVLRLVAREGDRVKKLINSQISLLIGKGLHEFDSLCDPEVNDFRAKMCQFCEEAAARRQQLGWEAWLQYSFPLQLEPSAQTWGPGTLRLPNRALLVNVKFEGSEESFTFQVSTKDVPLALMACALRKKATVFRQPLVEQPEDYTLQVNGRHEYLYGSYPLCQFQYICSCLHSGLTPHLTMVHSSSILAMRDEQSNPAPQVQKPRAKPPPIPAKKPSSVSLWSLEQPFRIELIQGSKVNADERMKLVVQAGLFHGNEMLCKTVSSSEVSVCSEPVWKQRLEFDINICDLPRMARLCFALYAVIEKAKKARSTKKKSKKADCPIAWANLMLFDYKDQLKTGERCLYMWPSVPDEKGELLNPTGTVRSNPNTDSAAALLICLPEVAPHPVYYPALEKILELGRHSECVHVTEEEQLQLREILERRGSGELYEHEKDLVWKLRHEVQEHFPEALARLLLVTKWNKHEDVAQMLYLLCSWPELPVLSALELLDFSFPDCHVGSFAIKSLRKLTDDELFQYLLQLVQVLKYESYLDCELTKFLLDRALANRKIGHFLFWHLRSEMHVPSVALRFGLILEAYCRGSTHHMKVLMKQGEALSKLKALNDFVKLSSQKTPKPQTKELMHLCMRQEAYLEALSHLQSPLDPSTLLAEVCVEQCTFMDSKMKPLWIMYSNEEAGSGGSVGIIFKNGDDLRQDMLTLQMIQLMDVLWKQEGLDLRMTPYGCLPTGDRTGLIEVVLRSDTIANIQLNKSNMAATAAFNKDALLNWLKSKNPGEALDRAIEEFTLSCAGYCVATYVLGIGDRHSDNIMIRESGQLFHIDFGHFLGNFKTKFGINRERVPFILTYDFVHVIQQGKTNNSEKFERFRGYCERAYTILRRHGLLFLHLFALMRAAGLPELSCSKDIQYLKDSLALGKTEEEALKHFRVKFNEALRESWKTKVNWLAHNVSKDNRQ
Protocol: as §1, §2

[5] = recombinant kinase, ADP-Glo, mean of two independent experiments, read-out: IC50 PI3K β
[6] = recombinant kinase, ADP-Glo, mean of two independent experiments, read-out: IC50 PI3K γ

| Compound | Fold Selectivity β/δ [1] | IC50 [1, 5] [µM] | Fold Selectivity γ/δ [2] | IC50 [2, 6] [µM] | IC50 [3] [µM] | Fold Selectivity α/δ [3] | IC50 [4] [nM] | IC50 [2] [µM] | IC50 [1] [µM] |
| --- | --- | --- | --- | --- | --- | --- | --- | --- | --- |
| CN(C)C1CCN(Cc2cc3nc(-c4cccc5[nH]ccc45)cc(N4CCOCC4)n3n2)CC1 [Compound 24, 2-((4-(dimethylamino)piperidin-1-yl)methyl)-5-(1H-indol-4-yl)-7-(morpholin-4-yl)pyrazolo[1,5-a]pyrimidine] | 389 | 14.4 | 1332 | 49.3 | 6.38 | 172 | 37 |  |  |
| CCN1CCN(Cc2cc3nc(-c4cccc5[nH]ccc45)cc(N4CCOCC4)n3n2)CC1 [Compound 34, 2-((4-ethylpiperazin-1-yl)methyl)-5-(1H-indol-4-yl)-7-(morpholin-4-yl)pyrazolo[1,5-a]pyrimidine] | 253 | 10.9 | >1395 | > 60 | 34.3 | 798 | 43 |  |  |
| CC(C)(O)C1CCN(Cc2cc3nc(-c4cccc5[nH]ccc45)cc(N4CCOCC4)n3n2)CC1 [Compound 36, 2-((4-(2-hydroxypropan-2-yl)piperidin-1-yl)methyl)-5-(1H-indol-4-yl)-7-(morpholin-4-yl)pyrazolo[1,5-a]pyrimidine] | 332 | 4.31 | 1223 |  | 15.8 | 1217 | 13 | 15.9 |  |
| CC(C)(C(N)=O)N1CCN(Cc2cc3nc(-c4cccc5[nH]ccc45)cc(N4CCOCC4)n3n2)CC1 [Compound 38, 2-(4-((5-(1H-indol-4-yl)-7-(morpholin-4-yl)pyrazolo[1,5-a]pyrimidin-2-yl)methyl)piperazin-1-yl)-2-methylpropionamide] | 146 | 5.99 | 428 |  | 17.7 | 433 | 41 | 17.5 |  |
| c1cc(-c2cc(N3CCOCC3)n3nc(CN4CCN(C5CC5)CC4)cc3n2)c2cc[nH]c2c1 [Compound 39, 2-((4-cyclopropylpiperazin-1-yl)methyl)-5-(1H-indol-4-yl)-7-(morpholin-4-yl)pyrazolo[1,5-a]pyrimidine] | 259 | 15 |  |  | 25.3 | 436 | 58 |  |  |
| CC(C)(C)C1CCN(Cc2cc3nc(-c4cccc5[nH]ccc45)cc(N4CCOCC4)n3n2)CC1 [Compound 41, 2-((4-tert-butylpiperidin-1-yl)methyl)-5-(1H-indol-4-yl)-7-(morpholin-4-yl)pyrazolo[1,5-a]pyrimidine] | 62 | 3.17 | 191 | 9.73 | 12.3 | 241 | 51 |  |  |
| O=C(C1CC1)N1CCN(Cc2cc3nc(-c4cccc5[nH]ccc45)cc(N4CCOCC4)n3n2)CC1 [Compound 44, 2-((4-(cyclopropanecarbonyl)piperazin-1-yl)methyl)-5-(1H-indol-4-yl)-7-(morpholin-4-yl)pyrazolo[1,5-a]pyrimidine] | 332 | 7.31 | 38 | 0.846 | 1.27 | 58 | 22 |  |  |
| CC(C)(O)C1CCN(Cc2cc3nc(-c4c(F)ccc5[nH]ccc45)cc(N4CCOCC4)n3n2)CC1 [Compound 49, 2-((4-(2-hydroxypropan-2-yl)piperidin-1-yl)methyl)-5-(5-fluoro-1H-indol-4-yl)-7-(morpholin-4-yl)pyrazolo[1,5-a]pyrimidine] | 283 | 11.3 | 1195 | 47.8 | 34.4 | 860 | 40 |  |  |
| CC(C)(O)C1CCN(Cc2cc3nc(-c4cncc5[nH]ccc45)cc(N4CCOCC4)n3n2)CC1 [Compound 50, 2-((4-(2-hydroxypropan-2-yl)piperidin-1-yl)methyl)-5-(1H-pyrrolo [2,3-c]pyridin-4-yl)-7-(morpholin-4-yl)pyrazolo[1,5-a]pyrimidine] | 188 | 5.26 |  |  | 3.65 | 130 | 28 |  |  |
| CC(C)(O)C1CCN(Cc2cc3nc(-c4ccnc5[nH]ccc45)cc(N4CCOCC4)n3n2)CC1 [Compound 51, 2-((4-(2-hydroxypropan-2-yl)piperidin-1-yl)methyl)-5-(1H-pyrrolo [2,3-b]pyridin-4-yl)-7-(morpholin-4-yl)pyrazolo[1,5-a]pyrimidine] | 1165 | 26.8 |  |  | 9.75 | 424 | 23 |  |  |
| CC(C)(C)N1CCN(Cc2cc3nc(-c4c(F)ccc5[nH]ccc45)cc(N4CCOCC4)n3n2)CC1 [Compound 53, 2-((4-tert-butylpiperazin-1-yl)methyl)-5-(5-fluoro-1H-indol-4-yl)-7-(morpholin-4-yl)pyrazolo[1,5-a]pyrimidine] | 1768 |  | >5455 | > 60 | 19.3 | 1754 | 11 |  | 19.5 |
| CC(C)(C)N1CCN(Cc2cc3nc(-c4ccnc5[nH]ccc45)cc(N4CCOCC4)n3n2)CC1 [Compound 55, 2-((4-tert-butylpiperazin-1-yl)methyl)-5-(1H-pyrrolo [2,3-b]pyridin-4-yl)-7-(morpholin-4-yl)pyrazolo[1,5-a]pyrimidine] | 711 | 32 |  |  | 2.96 | 66 | 45 |  |  |
